Laboratory results published in patent US11590130B2, “Combinations of a tubulin polymerization inhibitor and a poly (ADP-ribose) polymerase (PARP) inhibitor for use in the treatment of cancer” (NOVIGA RESEARCH AB, priority 2018, dated 2023).

How the values were obtained:
[1] = test system: patient-derived xenograft of ovarian cancer (Ov10584); experiment: Anti-tumor efficacy of NOV202 alone and in combination with olaparib in patient-derived xenograft of ovarian cancer (Example 1); type: in vivo; details: for T/C (tumor/control) value: NMRI:nu/nu mice, Ov10584 s.c., once a day for 14 days (days 8-22), combination same dosage and schedule
From the text: A Study of Anti-Tumor Efficacy of NOV202 Alone and in Combination with Olaparib in a Patient-Derived Xenograft of Ovarian Cancer (Ov10584)
NMRI:nu/nu female (Janvier) mice (8 weeks old) were used as follows: 4 animals in the vehicle group, 4 animals in NOV202 group, Olaparib group and in the combination group of NOV202 and olaparib, respectively. NOV202 was synthesized as described in WO 2012/127032. Olaparib was purchased from LC Laboratories. The patient-derived xenograft Ov10584 was used at passage number 7. All mice received tissue fragments of 2×2 mm subcutaneously at day 0, and tumors were allowed to reach palpable sizes of 118 mm^3 (mean) (the study day 8) prior to start the treatments. NOV202 group was administered PO at a dose 30 mg/kg and olaparib group was administered PO at a dose 100 mg/kg. The combination of NOV202 and olaparib group had the same dosage and schedule as in monotherapy. NOV202 was given in the morning (5 ml/kg) and olaparib in the afternoon (10 ml/kg). All three groups were administered 14 days once a day (days 8-22). The tumor volumes and body weights of animals were measured at regular intervals (day 7, 9, 13, 15, 19, 22, 27, all groups, and continued to measure the combination group day 29, 33, 36, 40, 43, 47, 50, 54, 57).

[2] = test system: patient-derived xenograft Ov10584; experiment: Anti-tumor efficacy of NOV202 with olaparib vs. plinabulin with olaparib in patient-derived xenograft of ovarian cancer (Example 2); type: in vivo; details: NMRI:nu/nu mice, Ov10584 s.c.; NOV202 30 mg/kg PO and olaparib 100 mg/kg PO once a day days 6-19; plinabulin 7.5 mg/kg i.p. days 1, 4, 8, 11, 15; combinations same dosage and schedule
From the text: A Study of Anti-Tumor Efficacy of Combination of NOV202 with Olaparib Vs. Combination Plinabulin with Olaparib in a Patient-Derived Xenograft of Ovarian Cancer ([…])
NMRI:nu/nu female (Janvier) mice (8 weeks old) were used as follows: 4 animals in the vehicle group, 4 animals in NOV202 group, olaparib group, plinabulin group, in the combination group of NOV202 and Olaparib, and in the combination group of plinabulin and olaparib, respectively. NOV202 was synthesized as described in WO 2012/127032. Olaparib was purchased from LC Laboratories, and plinabulin was purchased from Sellechem. The patient-derived xenograft Ov10584 was used at passage number 4. All mice received tissue fragments of 2×2 mm subcutaneously into the left flank at day 0, and tumors were allowed to reach palpable sizes of 108 mm^3 (mean) (the study day 6) prior to start the treatments. NOV202 group was administered PO at a dose 30 mg/kg and olaparib group was administered PO at a dose 100 mg/kg, and plinabulin was administered i.p. at a dose 7.5 mg/kg. The combination of NOV202 and olaparib group had the same dosage and schedule as in monotherapy, NOV202 was given in the morning (5 ml/kg) and olaparib in the afternoon (10 ml/kg). The combination of plinabulin and olaparib group had also the same dosage and schedule as in monotherapy. NOV202 and olaparib was administered 14 days once a day (days 6-19), and plinabulin was administered days 1, 4, 8, 11, 15 once a day. The tumor volumes and body weights of animals were measured at regular intervals (day 6, 7, 9, 12, 14, 16, 19, 23, 26 and 29), all groups.

[3] = test system: ovarian cancer (OC) cell line A2780; experiment: Anti-proliferative activity in human cancer cell lines; type: cell-based; details: A2780 cells
From the text: (§1) Compounds of Formula I, including NOV202, exerts its action by inhibition of tubulin polymerization and thereby the assembly of microtubule structures, which cause a cell cycle arrest and cell death via apoptosis. […] The A2780/Adr multidrug resistant OC cell line overexpresses the P-glycoprotein efflux transporters which confer multidrug resistance.

[4] = test system: human OC xenograft model; experiment: In vivo efficacy study in a human OC xenograft model
From the text: Development of the tumour vasculature system is essential to tumour growth and metastatic spread of malignant cells. The rationale behind using vasculature targeting agents in anti-cancer therapy is that the cancer cells will be deprived of essential nutrients and oxygen supply for their growth and spread, thereby improving treatment outcome.

[5] = test system: A2780/Adr multidrug resistant OC cell line; experiment: Activity in multidrug resistant OC cells; type: cell-based, human; details: A2780/Adr overexpresses P-glycoprotein efflux transporters
From the text: as §1

[6] = NOV202 30 mg/kg PO, olaparib 100 mg/kg PO

O=C(c1cc(Cc2n[nH]c(=O)c3ccccc23)ccc1F)N1CCN(C(=O)C2CC2)CC1 [olaparib, 4-(3-{[4-(cyclopropylcarbonyl)piperazin-1-yl]carbonyl}-4-fluorobenzyl)phthalazin-1(2H)-one, reference compound]
T/C (tumor/control) value [1, 6]: 20% | T/C (tumor/control) value [2]: 45%

CC(C)(C)c1[nH]cnc1/C=c1\[nH]c(=O)/c(=C/c2ccccc2)[nH]c1=O [plinabulin, (3Z,6Z)-3-Benzylidene-6-{[5-(2-methyl-2-propanyl)-1H-imidazol-4-yl]methylene}-2,5-piperazinedione]
T/C (tumor/control) value [2]: 58%

COc1ccc2[nH]cc(CCNc3nccc(Nc4cccc5c4ccn5C)n3)c2c1 [NOV202, N^2-[2-(5-methoxy-1H-indol-3-yl)ethyl]-N^4-(1-methyl-1H-indol-4-yl)pyrimidine-2,4-diamine]
anti-proliferative activity [3]: very potent | T/C (tumor/control) value [1, 6]: 37% | tolerability ([1]; daily treatment for 14 days, NOV202 30 mg/kg PO, olaparib 100 mg/kg PO): well tolerated | body weight loss ([1]; one day after treatment stop, 30 mg/kg NOV202 daily for 14 days, mice recovered soon): 6% | T/C (tumor/control) value [2]: 32% | suppression of tumour growth ([4]; human OC xenograft, similar to paclitaxel in this model): up to 80% | tolerability ([4]; oral gavage over a period of 20 days): well tolerated | effectiveness in multidrug resistant versus isogenic non-resistant OC cells [5]: as effective in multidrug resistant OC cells as in the isogenic (drug sensitive variant) non-resistant OC cells
